Reference: US20120165285A1, “COMBINED PREPARATION FOR USE AS A MEDICAMENT” (priority 2009, published 2012)

Key:
[1] = tested on: patients suffering from diabetic neuropathy; experiment: Phase 2A clinical trial, diabetic neuropathic pain; assay type: in vivo, human
Protocol: In a Phase 2A clinical trial, patients suffering from diabetic neuropathy were administered 2-methoxyadenosine (2-MeOAd)) (7 mg 3 times per day) or a placebo over a four week period, and asked to rate their pain intensity (diabetic neuropathic pain) once per week based on an 11 point Likert Scale (0-10). The patients included some who were already being administered with a calcium channel blocker at a conventional therapeutic dose. The calcium channel blockers administered included Amlodipine (5-10 mg once per day), Verapamil, or Felodipine.
Patients in the clinical trial also completed the Short form McGill pain questionnaire (SF-MPQ) (Melzack, Pain, 1987, August; 30(2):191-7). The main component of the SF-MPQ consists of 15 descriptors (11 sensory; 4 affective) which are rated on an intensity scale as […], 1=mild, 2=moderate or 3=severe. Three pain scores are derived from the sum of the intensity rank values of the words chosen for sensory, affective and total descriptors. The SF-MPQ also includes the Present Pain Intensity (PPI) index of the standard MPQ and a visual analogue scale (VAS).

[2] = tested on: rat adjuvant model of arthritis; experiment: Rat adjuvant model of arthritis, analgesic relief; assay type: in vivo
adenosine A2A receptor = adenosine A2A receptor (Homo sapiens, UniProt P29274); experiment: EC50 at the adenosine A2A receptor; assay type: biochemical
From the text: For the avoidance of doubt, the EC50 value of a compound is defined herein as the concentration of the compound that provokes a receptor response halfway between the baseline receptor response and the maximum receptor response (as determined, for example, using a dose-response curve).
The EC50 value should be determined under standard conditions (balanced salt solutions buffered to pH 7.4). For EC50 determinations using isolated membranes, cells and tissues this would be in buffered salt solution at pH 7.4 (e.g. cell culture medium), for example as in Daly et al., Pharmacol. (1993) 46, 91-100), or preferably as in Tilburg et al (J. Med. Chem. (2002) 45, 91-100). The EC50 could also be determined in vivo by measuring A2A adenosine receptor mediated responses in a normal healthy animal, or even in a tissue perfused under normal conditions (i.e. oxygenated blood, or oxygenated isotonic media, also buffered at pH 7.4) in a normal healthy animal.

A2A adenosine receptor = A2A adenosine receptor (Homo sapiens, UniProt P29274); conditions: pH below 7.4; cited from earlier work
[3] = patients also administered a calcium channel blocker
[4] = with calcium channel blocker, P<0.02

Chain of A2A adenosine receptor (P29274 whole entry): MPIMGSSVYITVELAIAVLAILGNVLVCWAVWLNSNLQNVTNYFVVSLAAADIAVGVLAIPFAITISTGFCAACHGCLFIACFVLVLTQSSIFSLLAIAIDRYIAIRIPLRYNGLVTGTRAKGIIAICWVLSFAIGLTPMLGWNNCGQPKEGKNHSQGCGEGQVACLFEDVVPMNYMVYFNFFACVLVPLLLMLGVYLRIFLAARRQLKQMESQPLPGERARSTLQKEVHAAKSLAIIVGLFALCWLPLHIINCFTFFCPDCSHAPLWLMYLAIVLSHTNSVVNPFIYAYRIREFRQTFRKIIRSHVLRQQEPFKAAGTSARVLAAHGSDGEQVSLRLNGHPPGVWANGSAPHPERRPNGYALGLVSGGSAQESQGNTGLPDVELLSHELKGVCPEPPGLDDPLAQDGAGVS
Chain of adenosine A2A receptor (P29274 whole entry): as above

COc1nc(N)c2ncn([C@@H]3O[C@H](CO)[C@@H](O)[C@H]3O)c2n1 [2-methoxyadenosine]
effect on 24-hour pain intensity compared with placebo [1, 3]: significant effect | responder rate, patients who experienced >30% pain relief [1, 3]: 74% | responder rate, patients who experienced >50% pain relief [1, 3]: 43% | median change from baseline in 24-hour pain intensity ([1]; patients also administered a calcium channel blocker, after 4 weeks, 7 mg 3 times per day, 11 point Likert Scale, P<0.01): more than −2.5 | effect on 24-hour pain intensity compared with placebo ([1]; patients not also administered a calcium channel blocker): no effect | median change from baseline in 24-hour pain intensity, difference below placebo ([1]; whole patient population (with and without calcium channel blocker), Week 4, 7 mg 3 times per day, 11 point Likert Scale): 0.7 | patient global impression of change (PGIC), 7 point scale ([1]; with calcium channel blocker): favourable effect | Clinical global impression of change (CGIC), 7 point scale [1, 4]: reduction | pain rated by the VAS (SF-MPQ) [1, 4]: reduction | SF-MPQ total pain intensity score ([1]; with calcium channel blocker, P<0.03): reduction | present pain intensity (PPI, SF-MPQ) ([1]; with calcium channel blocker, P<0.04): reduction | minimum plasma concentration giving maximal analgesic relief [2]: 0.06 µM | EC50 (adenosine A2A receptor): ~1 µM | affinity for adenosine receptors at pH below pH 7.4 (A2A adenosine receptor): increased affinity
